{"source": "patent US11266715B2", "about": "“C3A receptor agonists for use against ischemic brain injury, stroke, traumatic brain injury, spinal cord injury and neurodegenerative disorders” (priority 2016, dated 2022)", "key": {"[1]": {"test_system": "mice subjected to neonatal HI injury", "assay": "Open field after neonatal HI injury", "format": "in vivo, mouse", "conditions": "P50, 3 days treatment", "method": "In the short-term study (3 days of intranasal treatment), 3 groups of WT mice were used; animals subjected to neonatal HI injury and treated with either C3a (HI-C3a, n=18) or PBS (HI-PBS, n=18) and sham-operated animals treated with PBS (SHAM-PBS, n=19). These mice were tested in an open field and object recognition test (ORT) at P50-P54 and brains were collected at P55 (FIG. 8A).\nPurified human C3a (Complement Technology Inc., Tyler, Tex., USA) was diluted in sterile phosphate buffered saline (PBS) to a concentration of 200 nM, and a total of 8 μl i.e. […] (4 μl/nostril; corresponding to ca. 2.56 μg/kg body weight) of peptide solution or PBS was given intranasally to awake and hand-restrained mice held in a supine position. Solutions were administered through a pipette tip, drop-wise in 2 μl-portions divided by 1 min intervals to allow for absorption. […] C3a or PBS was given every 24 hours for three (short-term study) or seven (long-term study) days starting 1 h after HI induction, i.e. between P9 and P11 or P9 and P15, respectively. Mice in each litter were randomly assigned to C3a or PBS treatment. Sham animals received PBS. […]\nThe activity of each animal on the first day of habituation to the object recognition test apparatus was recorded as an open field task to study locomotor and exploratory activities (Leke et al., 2012). […]"}, "GFAP": {"test_system": "GFAP", "assay": "GFAP immunoreactivity in dorsal hippocampus after neonatal HI", "format": "in vivo, mouse", "conditions": "P55, 3 days treatment after HI", "method": "On P51 (long-term study) or P55 (short-term study), mice were deeply anesthetized with thiopental [Pentothal Sodium (0.01 ml/g body weight), Hospira, Ill., USA)] and transcardially perfused with 0.9% saline, followed by 4% paraformaldehyde (PFA) in 0.1 M PBS. Brains were removed and post-fixed in 4% PFA at 4° C. for 24 h followed by 70% ethanol for 24 h. Tissue was processed using an automatic tissue processor (SAKURA Tissue Tek VIP 3000, Tournai, Belgium) and embedded in paraffin. Brains were cut at room temperature into 8-μm serial coronal sections using a sliding microtome (Microm HM 450, Thermo Scientific, Massachusetts, USA), attached to silane coated slides and dried at RT. […]\nNeuN positive cells, GFAP positive relative area, as well as GAP-43, SYN, and VGLUT1 positive puncta were counted by using MetaMorph software (ver. 7.8.6, Molecular Devices, CA, USA) on confocal images obtained with a 20× (NeuN and GFAP) or 63× (GAP-43, SYN, and VGLUT1) objective (Carl Zeiss LSM 700 Laser Scanning Microscope, Jena, Germany). Iba-1 positive cell somata were counted on bright field images obtained with a 20× objective (Nikon Eclipse 80i). […]"}, "[2]": {"test_system": "mice subjected to neonatal hypoxia-ischemia", "conditions": "single i.c.v. injection 1 h after HI, wild-type mice tested as adults (42 days later); not in C3aR−/− mice; cited from earlier work"}, "[3]": {"test_system": "cultured primary astrocytes", "conditions": "cited from earlier work"}}, "note": "Entries after “also recorded” stand apart in the source; their conditions may differ."}
{"substance": "C3a: Purified human C3a peptide (Complement Technologies), C3a receptor agonist, amino acid sequence SEQ ID NO: 1", "values": [{"measurement": "anxiety-like behavior (centre distance and time, rearing, grooming)", "setting": "[1]", "result": "anxiety-like behavior was not induced"}, {"measurement": "general exploratory and locomotor activities (speed, activity, locomotion time, distance)", "setting": "[1]", "result": "did not affect general exploratory and locomotor activities"}, {"measurement": "GFAP relative area in CA1 and DG", "setting": "GFAP", "result": "did not differ between the hemispheres or in comparison with sham mice"}, {"measurement": "HI-induced cognitive/memory impairment after single intraventricular C3a", "setting": "[2]", "result": "prevented HI-induced cognitive impairment; also recorded: ameliorated memory impairment"}, {"measurement": "ischemia-induced upregulation of GFAP", "setting": "[3]; cultured primary astrocytes, C3aR-dependent", "result": "attenuated ischemia-induced upregulation of GFAP"}, {"measurement": "survival of astrocytes", "setting": "[3]; in vitro ischemia model", "result": "increased the survival of astrocytes"}]}
